From PMC6389928, “Biomolecular Interaction, Anti-Cancer and Anti-Angiogenic Properties of Cobalt(III) Schiff Base Complexes” (Scientific Reports, 2019) come the findings set out here.

Read-outs that look alike come from different tables or passages of the source.

This assay has as its target BSA (Bos taurus, UniProt P02769). The following applies: for Quenching Constant (kq): τ0 assumed 10^−8 s; for ∆G° / ∆H° / ∆S°: BSA binding; for ∆H° / ∆S°: van't Hoff plot 285-299 K. The procedure:
The obtained fluorescence quenching results were analyzed using the Stern-Volmer eqation, F0/F=1+Ksv[Q]kq=Ksv/τ0 where F0 and F are the fluorescence emission intensities of BSA in the absence and presence of complexes 1 and 2. KSV is the Stern-Volmer quenching constant, [Q] is concentration of the complexes 1 and 2, kq is the quenching rate constant of BSA and τ0 is the average lifetime of the emitter in the absence of quencher. The above equation was applied to determine KSV by linear regression of a plot of F0/F against [Q].
Normally, quenching can take place either as dynamic quenching, static quenching or a combination of both mechanisms. Static quenching refers to fluorophore-quencher complex formation in the ground state while dynamic quenching refers to a process in which the fluorophores and the quencher come into contact during the transient existence of the excited state[57],[58]. The plots of F0/F versus [Q]
For the static quenching process, the binding constant (Kb) and the number of binding sites (n) can be determined by the following equation[62] log[(F0−F)]/F=logKb+nlog[Q] where F0 and F are the fluorescence intensities of the emitter in the absence and presence of the quencher, respectively, and [Q] the concentration of the quencher. Thus, a plot of log F0 − F/F versus log [Q] (Fig. 3) was used to determine Kb.
In general, intermolecular interacting forces between a small molecule and a biomacromolecule include hydrogen bonding, van der Waals force, and electrostatic and hydrophobic interactions. The thermodynamic parameters, enthalpy change (ΔH°) and entropy change (ΔS°) of the binding are important for confirming the binding mode. For this reason, these thermodynamic parameters have been calculated using the equation, lnKb=−ΔH°/RT+ΔS°/RΔG°=ΔH°−TΔS°=−RTInKb where Kb is the binding constant at the corresponding temperature, and R is the gas constant. The ΔH° and ΔS° values are calculated from the slope and intercept from plotting ln Kb versus 1/T (Fig. 3).
The concentration of BSA prepared in PBS buffer (pH = 7.4) was determined spectrophotometrically using the extinction coefficient of 43,800 M^−1 cm^−1 at 280 nm[80]. The fluorescence spectra of BSA were recorded at room temperature with an excitation wavelength of BSA at 280 nm and the emission at 350 nm by keeping the concentration of BSA constant (1.35 × 10^−[…]) while increasing the cobalt(III) complex concentration regularly.

Sequence of BSA (P02769 25-607): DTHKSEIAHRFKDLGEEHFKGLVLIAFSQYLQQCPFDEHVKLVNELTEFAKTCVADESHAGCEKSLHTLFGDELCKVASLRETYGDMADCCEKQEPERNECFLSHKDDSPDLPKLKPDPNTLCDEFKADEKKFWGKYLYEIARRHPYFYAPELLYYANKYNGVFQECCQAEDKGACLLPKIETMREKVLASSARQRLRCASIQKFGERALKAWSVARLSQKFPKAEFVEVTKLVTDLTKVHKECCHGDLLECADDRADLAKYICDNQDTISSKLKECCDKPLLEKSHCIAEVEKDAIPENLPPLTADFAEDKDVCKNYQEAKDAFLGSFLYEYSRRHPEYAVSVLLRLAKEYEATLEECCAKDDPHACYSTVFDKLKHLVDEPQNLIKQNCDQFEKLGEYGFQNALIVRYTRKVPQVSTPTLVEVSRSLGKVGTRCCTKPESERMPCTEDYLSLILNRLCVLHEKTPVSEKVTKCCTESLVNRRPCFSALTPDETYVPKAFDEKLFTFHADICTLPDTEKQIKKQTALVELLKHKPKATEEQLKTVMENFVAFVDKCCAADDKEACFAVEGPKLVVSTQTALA

Take `CCCCCCCCCCCC[NH2+][Co-3]123([NH2+]CCCCCCCCCCCC)[O]c4ccccc4C=[N+]1CC[N+]2=Cc1ccccc1[O]3.[O-][Cl+3]([O-])([O-])[O-]` [Complex 1, trans-[Co(salen)(DA)2](ClO4)]: the “∆H°” value is “+69.429 kJ mol^−1” and the “∆S°” value is given as “+335.928 J mol^−1 K^−1”. Also, for the setting “285 K”, the “Quenching Constant (kq)” value is 1.6763 10^13 M^−1 s^−1 and the “∆G°” value is -6.238 kcal/mol. Moreover, for the setting “292 K”, the “Quenching Constant (kq)” value is reported as 1.3531 10^13 M^−1 s^−1 and the “∆G°” value was -6.7008 kcal/mol. In addition, under “299 K”, the “Quenching Constant (kq)” value was 1.0862 10^13 M^−1 s^−1 and the “∆G°” value was -7.4297 kcal/mol.
Regarding `CCCCCCCCCCCC[NH2+][Co-3]123([NH2+]CCCCCCCCCCCC)[O]c4ccccc4C=[N+]1c1ccccc1[N+]2=Cc1ccccc1[O]3.[O-][Cl+3]([O-])([O-])[O-]` [Complex 2, trans-[Co(salophen)(DA)2](ClO4)], the “∆H°” value is “+85.617 kJ mol^−1” and the “∆S°” value is listed as “+383.182 J mol^−1 K^−1”. Besides, where the note is “285 K”, the “Quenching Constant (kq)” value is recorded as 1.4802 10^13 M^−1 s^−1 and the “∆G°” value was -5.6506 kcal/mol. Further, for the setting “292 K”, the “Quenching Constant (kq)” value is recorded as 1.2245 10^13 M^−1 s^−1 and the “∆G°” value is -6.0217 kcal/mol. Besides, for the setting “299 K”, the “Quenching Constant (kq)” value is given as 1.0114 10^13 M^−1 s^−1 and the “∆G°” value was -6.9336 kcal/mol.
